Tests used:
OSF-2 mRNA = test: Expression analysis of OSF-2 mRNA using MC3T3-E1 cells (real-time PCR); type: cell-based, murine; conditions: 30 μM, 24 hours
OSF-2 promoter = test: Reporter assay using COS-1 cells with human OSF-2 reporter plasmid pGL3-hOSFgE (luciferase); type: cell-based; conditions: 24 hours after compound addition, pGL3-control (SV40 promoter) as control
Source text: A region extending from about 2 kb upstream of the initiation codon to immediately before the initiation codon was amplified by PCR using human OSF-2 gene #2 obtained in Example 10-1 as a template and primers (12) 5′-[…]-3′ (SEQ ID NO: 25) and (13) 5′-[…]-3′ (SEQ ID NO: 26). Primer (13) was designed to insert a restriction enzyme XhoI recognition site into the 5′ end, and this amplified fragment was digested with restriction enzymes SpeI and XhoI to give a fragment of about 2 kb, which was then ligated to a vector fragment of pGL3-enhancer (Promega) digested with restriction enzymes NheI and XhoI located upstream of the luciferase gene using a ligation kit (TAKARA SHUZO CO., LTD.) to give pGL3-hOSFgE. The nucleotide sequence of the insert was determined according to the method of Example 1-5 to confirm that it was identical with the nucleotide sequence determined in Example 10-1.
COS-1 cells were plated on a 96-well plate at a density of 3×10^4 cells/well and the plate was incubated at 37° C. for 16-24 hours and then transiently transfected with OSF-2 reporter plasmid pGL3-hOSFgE shown in Example 10 using LipofectAMINE 2000 reagent (GIBCO), and after incubation for 24 hours at 37° C., the medium was replaced. […] Luciferase activity was assayed according to the protocol of a luciferase assay system (Promega) and detected with 1420 multilabel counter (Wallac). […]

Dahl-S rats = test: Survival of Dahl-S heart failure model rats after antisense transfection into the heart; type: in vivo, rat; conditions: 30 weeks post transfection, Dahl-S rats on 8% salt diet
Method: HVJ-liposomes were prepared as described in Example 6.2 by adding 50 μl of HMG-1,-2 mixture (1 mg/ml, Wako Pure Chemical Industries) to 1.4 mg of a solution of the antisense nucleotides selected in Example 7 dissolved in BSS buffer. Sense nucleotides were also prepared in the same manner.
The HVJ-liposome/DNA solution was injected into the left ventricle of the heart (apical and lateral sites) of 13-weeks old Dahl-S rats (DIS/Eis, Eisai, male) raised on an 8% salt diet from the age of 8 weeks in an amount of 75 μl each at 4 sites (a total volume of 300 μl) using a 30-gauge needle (antisense group: 13 rats, sense group: 13 rats).

Sprague-Dawley rats = test: Echocardiography 3 weeks after co-transfection of rOSF-2 plasmid and antisense/sense/scramble nucleotides into the rat heart; type: in vivo; conditions: 3 weeks post transfection; for EDV: end-diastolic volume / ESV: end-systolic volume / FS: fractional shortening of the inner diameter of the left ventricle / IVPWD / IVSTD: thickness of the end-diastolic interventricular septum / LVIDD: inner diameter of the end-diastolic left ventricle / LVIDS: inner diameter of the end-systolic left ventricle / LVPWS: thickness of the posterior wall of the end-systolic left ventricle / TVSTS: echocardiography, nucleotides co-injected with rOSF-2 plasmid
Method: HVJ-liposomes were prepared as described in Example 6 by adding 50 μl of HMG-1,-2 mixture (1 mg/ml, Wako Pure Chemical Industries) to 200 μg of the plasmid solution prepared in Example 6.1 and 1.4 mg of the antisense nucleotide solution selected in Example 7. Sense and scramble nucleotide sequences were also prepared in the same manner.
The HVJ-liposome/DNA solution was injected into the left ventricle of the heart (apical and lateral sites) of 13-weeks old Sprague-Dawley rats (male) in an amount of 100 μl each at 3 sites (a total volume of 300 μl) using a 30-gauge needle (rOSF-2/antisense group, rOSF-2/sense group and rOSF-2/scramble group). Similarly, pcDNA4/rOSF-2 was injected as a positive control group and pcDNA4/His-Myc vector was injected as a negative control group.
After anesthesia with ketamine (50 mg/ml) and xylazine (10 mg/ml) at 3 weeks post transfection, echocardiography was performed using Core Vision Pro SSA 350A (probe: 7 MHz, Toshiba).

[1] = test system: Myc-His-rOSF-2 fused protein; test: Selection of antisense nucleotide sequences: ELISA of Myc-His-rOSF-2 fused protein in transfected COS-1 cells; type: cell-based, rat
Source text: Five antisense nucleotide sequences shown as SEQ ID NOs: 12-16 were designed by selecting regions containing an initiation codon AUG but not containing three continuous guanines (triplet G) and incapable of forming a hairpin structure or self-annealing and synthesized by an outer contractor. All the antisense nucleotide sequences are phosphorothioate type.
The Myc-His-rOSF-2 fused protein expression vector pcDNA4/Myc-His/rOSF-2 described in Example 5 was introduced into COS-1 cells, and the antisense nucleotide sequences prepared in 1 above were introduced to screen antisense nucleotide sequences inhibiting the expression of Myc-His-rOSF 2 fused protein. The expression level of Myc-His-rOSF-2 fused protein was assayed by ELISA (Enzyme-Linked Immunosorbent Assay) using a Myc-specific monoclonal antibody (Invitrogen). Specifically, COS-1 cells were plated on a 96-well plate at a density of 2×10^4 cells/well. […]
The culture supernatant was immobilized to an EIA/RIA plate (Costar) by incubating 50 μl thereof at 37° C. for 1-2 hours, and washed twice with 200 μl of Dulbecco's phosphate-buffered saline containing 0.1% Tween (PBST). […] After incubation with 50 μl of TMB (3,3′,5,5′-tetramethylbenzidine) reagent (KPL) at room temperature for 30 minutes, the reaction was stopped by adding 50 μl of 0.1 N sulfuric acid and the absorbance at 450 nm was measured with a microplate reader. […]

Nc1nc(Cl)nc2c1ncn2[C@@H]1O[C@H](COP(=O)([O-])OP(=O)([O-])OP(=O)([O-])[O-])[C@@H](O)[C@H]1O.[Na+].[Na+].[Na+].[Na+] [2-chloroadenosine 5′-triphosphate tetrasodium]
expression of OSF-2 mRNA (standardized by GAPDH mRNA) (OSF-2 mRNA): inhibited the expression of OSF-2 mRNA
luciferase activity (OSF-2 promoter): inhibit luciferase activity specifically to OSF-2 promoter

Cc1ccccc1CNc1ncnc2c1ncn2[C@@H]1O[C@H](CO)[C@@H](O)[C@H]1O [Metrifudil, N-[(2-methylphenyl)methyl]-adenosine]
expression of OSF-2 mRNA (standardized by GAPDH mRNA) (OSF-2 mRNA): inhibited the expression of OSF-2 mRNA
luciferase activity (OSF-2 promoter): inhibit luciferase activity specifically to OSF-2 promoter

SEQ ID NO: 12: phosphorothioate antisense nucleotide sequence containing the initiation codon region of rat OSF-2; the one selected in Example 7 (AGGAACCATCTTCAGCCCTG; all phosphorothioate, sugars by position and methylation of C not given here)
survival rate (Dahl-S rats): 100%
cardiac dilatation (LVIDD, LVIDS vs. positive control, sense and scramble groups) (Sprague-Dawley rats): inhibited cardiac dilatation
EDV: end-diastolic volume (Sprague-Dawley rats): 210.0 ± 6.8 µL
ESV: end-systolic volume (Sprague-Dawley rats): 43.3 ± 5.1 µL
FS: fractional shortening of the inner diameter of the left ventricle (Sprague-Dawley rats): 49.5 ± 1.7%
IVPWD (Sprague-Dawley rats): 2.20 ± 0.13 mm
IVSTD: thickness of the end-diastolic interventricular septum (Sprague-Dawley rats): 1.68 ± 0.12 mm
LVIDD: inner diameter of the end-diastolic left ventricle (Sprague-Dawley rats): 6.42 ± 0.09 mm
LVIDS: inner diameter of the end-systolic left ventricle (Sprague-Dawley rats): 3.25 ± 0.15 mm
LVPWS: thickness of the posterior wall of the end-systolic left ventricle (Sprague-Dawley rats): 2.80 ± 0.17 mm
TVSTS (Sprague-Dawley rats): 3.07 ± 0.16 mm
inhibitory activity against OSF-2 protein production ([1]; final concentration 10 nM, FIG. 3): stronger inhibitory activity against OSF-2 protein production than the sense and scramble nucleotide sequences
inhibitory activity against OSF-2 protein production ([1]; final concentration 100 nM, 3 days, FIG. 2): inhibited the expression the most strongly

scramble: scramble nucleotide sequence with the 5′, 3′ direction reversed to SEQ ID NO: 12 (GTCCCGACTTCTACCAAGGA; listed as DNA, chemistry not given here)
EDV: end-diastolic volume (Sprague-Dawley rats): 307.6 ± 10.4 µL
ESV: end-systolic volume (Sprague-Dawley rats): 73.4 ± 7.5 µL
FS: fractional shortening of the inner diameter of the left ventricle (Sprague-Dawley rats): 46.7 ± 1.6%
IVPWD (Sprague-Dawley rats): 1.68 ± 0.07 mm
IVSTD: thickness of the end-diastolic interventricular septum (Sprague-Dawley rats): 1.26 ± 0.12 mm
LVIDD: inner diameter of the end-diastolic left ventricle (Sprague-Dawley rats): 7.60 ± 11 mm
LVIDS: inner diameter of the end-systolic left ventricle (Sprague-Dawley rats): 4.06 ± 0.18 mm
LVPWS: thickness of the posterior wall of the end-systolic left ventricle (Sprague-Dawley rats): 2.66 ± 0.07 mm
TVSTS (Sprague-Dawley rats): 2.60 ± 0.15 mm

sense: sense nucleotide sequence that is a sense strand corresponding to SEQ ID NO: 12 (CAGGGCTGAAGATGGTTCCT; listed as DNA, chemistry not given here)
survival rate (Dahl-S rats): 61.5%
EDV: end-diastolic volume (Sprague-Dawley rats): 339.2 ± 17.9 µL
ESV: end-systolic volume (Sprague-Dawley rats): 82.4 ± 10.2 µL
FS: fractional shortening of the inner diameter of the left ventricle (Sprague-Dawley rats): 46.7 ± 1.6%
IVPWD (Sprague-Dawley rats): 1.46 ± 0.11 mm
IVSTD: thickness of the end-diastolic interventricular septum (Sprague-Dawley rats): 1.26 ± 0.07 mm
LVIDD: inner diameter of the end-diastolic left ventricle (Sprague-Dawley rats): 7.93 ± 0.18 mm
LVIDS: inner diameter of the end-systolic left ventricle (Sprague-Dawley rats): 4.24 ± 0.22 mm
LVPWS: thickness of the posterior wall of the end-systolic left ventricle (Sprague-Dawley rats): 2.30 ± 0.15 mm
TVSTS (Sprague-Dawley rats): 2.50 ± 0.07 mm

From patent US7816511B2, “Remedies for heart failure” (Asubio Pharma Co., Ltd., priority 2000, dated 2010)
